Where a name gives a salt, the structure may show the parent alone.
What was measured:
[1] = in vivo; cited from earlier work
[2] = In vivo pharmacokinetics studies, dMN + NLX-HCL gel with or without heating pod; parameters: species or system albino Hartley guinea pigs; conditions: for enhancement in plasma concentration achieved with heat (vs no heat): 1 dMN; for plasma concentration, 2 dMN vs 1 dMN: non-heated
Excerpt: In Vivo Pharmacokinetics Studies. Preliminary in vivo data were collected in male (n=3) and female (n=2) albino Hartley guinea pigs (a common small animal model for dermal drug studies). All study procedures were IACUC approved. A crossover study design was used, dMN with and without use of heat (described in Table 5). The dorsal hair was clipped (not shaved) a day prior to studies. Either one or two dMN arrays (for a total of 100 or 200 dMNs total) were applied to the dorsal skin of the animal using gentle thumb pressure, and the backing of the dMN was removed.
The heat reaction was initiated by removing the protective tape cover. This was the same approach and conditions as used for the in vitro studies. […] Blood samples were collected at 0, 5, 10, 15, 30, 60, 75, 90, and 120 min. Plasma was separated from the blood immediately after collection and stored at −80° C. until analysis. A thermocouple probe in contact with the skin during the in vivo studies was used to record the skin temperature at the same timepoints as blood sampling.
The mixture was vortexed for 60 sec and centrifuged at 10,000 rpm for 15 min. The supernatant ethyl acetate layer was pipetted off and placed in a 5 mL glass tube under dry nitrogen to evaporate the organic layer. The dried residues were reconstituted with 100 μL 0.1% formic acid and analyzed using LC/MS.
Data Analysis. […] It is understood that when discussed herein, 1 dMN refers to a condition with a single, 100 microneedle array and 2 dMN refers to a condition with two arrays. All conditions were compared with and without the heating pod. […] For all analyses, p<0.05 was considered statistically significant.

SMILES	NLX population clearance [1]	enhancement in plasma concentration achieved with heat (vs no heat) ([2]; 5 min)	enhancement in plasma concentration achieved with heat (vs no heat) ([2]; 15 min)	enhancement in plasma concentration achieved with heat (vs no heat) ([2]; 30 min)	enhancement in plasma concentration achieved with heat (vs no heat) ([2]; 60 min)	AUC with heat compared to the same conditions without heat ([2]; 2 dMN, 0-5, 0-15, 0-30 and 0-60 min, p<0.05)	enhancement of plasma concentrations by applied heat ([2]; 2 dMN, 5 min)	enhancement of plasma concentrations by applied heat ([2]; 2 dMN, 15 min)	enhancement of plasma concentrations by applied heat ([2]; 2 dMN, 30 min)	enhancement of plasma concentrations by applied heat ([2]; 2 dMN, 60 min)	normalized plasma concentrations, heated vs dMN without heat ([2]; 2 or 1 dMN arrays)	normalized plasma concentrations, 1 vs 2 dMN ([2]; heated or not heated, at 5, 15, 30 and 60 min)	AUC 2 dMN vs 1 dMN ([2]; heated, all time ranges tested, p<0.05)	plasma concentration, 2 dMN vs 1 dMN ([2]; 5 min)	plasma concentration, 2 dMN vs 1 dMN ([2]; 15 min)	plasma concentration, 2 dMN vs 1 dMN ([2]; 30 min)	plasma concentration, 2 dMN vs 1 dMN ([2]; 60 min)
C=CCN1CC[C@]23c4c5ccc(O)c4O[C@H]2C(=O)CC[C@@]3(O)[C@H]1C5 [NLX, naloxone]	91 L/h	–	–	–	–	–	–	–	–	–	–	–	–	–	–	–	–
C=CCN1CC[C@]23c4c5ccc(O)c4O[C@H]2C(=O)CC[C@@]3(O)[C@H]1C5 [NLX-HCL, naloxone hydrochloride]	–	2.4	1.3	1.2	1.4	significantly higher	2.1 ×	2.2 ×	2.1 ×	1.8 ×	not significantly higher	no statistically significant differences	significantly higher	2.1 ×	1.6 ×	2.0 ×	2.3 ×
